These results are taken from patent publication US6538106B1, “Compositions and methods for treating infections using analogues of indolicidin” (priority 1996, dated 2003).

“And” between values parts separate entries of the source, which are not always exact repeats. Identical values can stand only once. Like-named read-outs stand apart in the source and are kept apart here. A value given as a limit tells only on which side of the number the result lay.

By MIC is commonly meant the lowest concentration that inhibits growth of the organism.

Holding throughout (assay type): cell-based
In assay [1] the test system is S. aureus. Briefly: Synergy assay (agarose dilution, FIC). The settings on record: for Mupirocin Comb. MIC: MIC of Mupirocin in combination with the peptide; for Peptide Comb. MIC: MIC of peptide in combination with Mupirocin; for Peptide MIC: peptide alone; for Ciprofloxacin Comb. MIC: MIC of Ciprofloxacin in combination with the peptide; for Peptide Comb MIC: MIC of peptide in combination with Ciprofloxacin. The method, then: (§1) Briefly, one assay for in vitro anti-bacterial activity, the agarose dilution assay, is set up with an array of plates that each contain a combination of peptide analogue and antibiotic in various concentrations. The plates are inoculated with bacterial isolates, incubated, and the MICs of the components recorded. […] Antibiotics used in testing include, but are not limited to, penicillins, cephalosporins, carbacephems, cephamycins, carbapenems, monobactams, aminoglycosides, glycopeptides, quinolones, tetracyclines, macrolides, and fluoroquinolones (see Table 1 below).
(§2) Synergy is calculated according to the formula below. An FIC of ≦0.5 is evidence of synergy, although combinations with higher values may be therapeutically useful. [formula]
Synergy is assayed using the agarose dilution technique, where an array of plates, each containing a combination of peptide and antibiotic in a unique concentration mix, is inoculated with the bacterial isolates. Synergy is investigated for peptide analogues in combination with a number of conventional antibiotics including, but not limited to, penicillins, cephalosporins, carbapenems, monobactams, aminoglycosides, macrolides, fluoroquinolones.
(§3) Synergy is expressed as a Fractional Inhibitory Concentration (FIC), which is calculated according to the equation below. An FIC of less than or equal to 0.5 is evidence of synergy, although combinations with higher values may be therapeutically useful. [formula]

Assay [2] concerns P. aeruginosa. The assay can be described thus: Synergy assay (agarose dilution, FIC). As to conditions: for Mupirocin Comb. MIC: MIC of Mupirocin in combination with the peptide; for Peptide Comb. MIC: MIC of peptide in combination with Mupirocin. Here is the method:
as §1, §2
(§4) Treatment with a combination of peptide analogues and conventional antibiotics can have a synergistic effect. Synergy is assayed using the agarose dilution technique, where an array of plates, each containing a combination of peptide and antibiotic in a unique concentration mix, is inoculated with the bacterial isolates. Synergy is investigated for peptide analogues in combination with a number of conventional antibiotics including, but not limited to, penicillins, cephalosporins, carbapenems, monobactams, aminoglycosides, macrolides, fluoroquinolones.
as §3

In assay [3] the test system is P. vulgaris. The assay can be described thus: Synergy assay (agarose dilution, FIC). The settings on record: P. vulgaris SBPV1; for Mupirocin Comb. MIC: MIC of Mupirocin in combination with the peptide; for Peptide Comb. MIC: MIC of peptide in combination with Mupirocin; for FIC: peptide + Mupirocin; for Peptide MIC: peptide alone. Here is the method: as §1, §2, §4, §3

Assay [4] relates to E. faecalis. The assay can be described thus: Synergy assay (agarose dilution, FIC). As to conditions: E. faecalis EFS8; for Mupirocin Comb. MIC: MIC of Mupirocin in combination with the peptide; for Peptide Comb. MIC: MIC of peptide in combination with Mupirocin; for FIC: peptide + Mupirocin; for Peptide MIC: peptide alone. Here is the method:
as §1, §2, §4, §3

For assay [5], the system named is S. marcescens. The assay can be described thus: Synergy assay (agarose dilution, FIC). As to conditions: for Mupirocin Comb. MIC: MIC of Mupirocin in combination with the peptide; for Peptide Comb. MIC: MIC of peptide in combination with Mupirocin; for FIC: peptide + Mupirocin; for Peptide MIC: peptide alone. The method, then: as §1, §2, §4, §3
In assay [6] the test system is E. coli. Briefly: Synergy assay (agarose dilution, FIC). As to conditions: for Mupirocin Comb. MIC: MIC of Mupirocin in combination with the peptide; for Peptide Comb. MIC: MIC of peptide in combination with Mupirocin; for FIC: peptide + Mupirocin; for Peptide MIC: peptide alone. Here is the method:
as §1, §2, §4, §3

For assay [7], the system named is bacteria.
Setting [8] is: S. aureus SBSA3, peptide + Mupirocin.
[9] abbreviates: S. aureus SBSA4, peptide + Mupirocin.

Turning to `C/C(=C\C(=O)OCCCCCCCCC(=O)O)C[C@@H]1OC[C@H](C[C@@H]2O[C@H]2[C@@H](C)[C@H](C)O)[C@@H](O)[C@H]1O` [Mupirocin, reference compound], the MIC worked out at 30 µg/mL in assay [1] (Staphylococcus aureus, S. aureus SBSA5, Mupirocin alone); 3 µg/mL in assay [3] (Proteus vulgaris, Mupirocin alone); 100 µg/mL in assay [4] (Enterococcus faecalis, Mupirocin alone). In addition, the “Mupirocin MIC” value in assay [2] (P. aeruginosa PA24, Mupirocin alone) was above 100 µg/mL.

On to I L K K W P W W P W K [MBI 11G13CN], for which the “Mupirocin Comb. MIC” value in assay [1] (S. aureus SBSA3) is 100 µg/mL; in assay [5] (S. marcescens SBSM1), above 100 µg/mL; in assay [3], 3 µg/mL; in assay [6] (E. coli ECO5), 30 µg/mL. Also, the “Peptide Comb. MIC” value was 64 µg/mL in assay [1] (S. aureus SBSA3); above 128 µg/mL in assay [5] (S. marcescens SBSM1); >128 µg/mL and 64 µg/mL in assay [3]; 8 µg/mL in assay [6] (E. coli ECO5). Moreover, the FIC in assay [1] (setting [8]) is 2; in assay [5] (S. marcescens SBSM1) it was 2; in assay [3], 2 and 1.25; in assay [6] (E. coli ECO5) it was 0.43. Moreover, the “Peptide MIC” value in assay [1] (S. aureus SBSA3) is 64 µg/mL; in assay [5] (S. marcescens SBSM1), above 128 µg/mL; in assay [3] it was above 128 µg/mL; in assay [6] (E. coli ECO5) it was 64 µg/mL.

Regarding I L K K W P W W P W R K [MBI 11B4CN], the “Mupirocin Comb. MIC” value in assay [1] (S. aureus SBSA3) is 10 µg/mL; in assay [1] (S. aureus SBSA4), above 100 µg/mL; in assay [5] (S. marcescens SBSM1), above 100 µg/mL; in assay [6] (E. coli ECO1), 10 µg/mL; in assay [4], 100 µg/mL. Moreover, the “Peptide Comb. MIC” value in assay [1] (S. aureus SBSA3) is 16 µg/mL; in assay [1] (S. aureus SBSA4) it was 8 µg/mL; in assay [5] (S. marcescens SBSM1), above 128 µg/mL; in assay [6] (E. coli ECO1), 4 µg/mL; in assay [4] it was 64 µg/mL. The FIC is given as 0.60 in assay [1] (setting [8]); 2 in assay [1] (setting [9]); 2 in assay [5] (S. marcescens SBSM1); 0.26 in assay [6] (E. coli ECO1); 2 in assay [4]. Besides, the “Peptide MIC” value was 32 µg/mL in assay [1] (S. aureus SBSA3); 8 µg/mL in assay [1] (S. aureus SBSA4); above 128 µg/mL in assay [5] (S. marcescens SBSM1); 16 µg/mL in assay [6] (E. coli ECO1); 64 µg/mL in assay [4].

As for I L K K W P W W P W R R K [MBI 11CAN], the MIC in assay [7] (A. calcoaceticus AC002, listed as MBI 11ACN) was 2 µg/mL; in assay [7] (E. coli ECO005, listed as MBI 11ACN), 16 µg/mL; in assay [7] (E. faecalis EFS004, listed as MBI 11ACN), 8 µg/mL; in assay [7] (K. pneumoniae KP001, listed as MBI 11ACN) it was 16 µg/mL; in assay [7] (S. epidermidis SE010, listed as MBI 11ACN), 4 µg/mL; in assay [7] (S. maltophilia SMA002, listed as MBI 11ACN) it was 64 µg/mL.

I L K K Y P Y Y P Y R R K [MBI 11A3CN]: the “Mupirocin Comb. MIC” value is above 100 µg/mL in assay [1] (S. aureus SBSA2); above 100 µg/mL in assay [5] (S. marcescens SBSM2); above 100 µg/mL in assay [2] (P. aeruginosa PA3); 30 µg/mL in assay [6] (E. coli SBECO1); 100 µg/mL in assay [4]. Moreover, the “Peptide Comb. MIC” value in assay [1] (S. aureus SBSA2) was 128 µg/mL; in assay [5] (S. marcescens SBSM2) it was above 128 µg/mL; in assay [2] (P. aeruginosa PA3) it was above 128 µg/mL; in assay [6] (E. coli SBECO1), 8 µg/mL; in assay [4], above 128 µg/mL. Further, the FIC amounted to 2 in assay [1] (S. aureus SBSA2, peptide + Mupirocin); 2 in assay [5] (S. marcescens SBSM2); 2 in assay [2] (P. aeruginosa PA3, peptide + Mupirocin); 0.43 in assay [6] (E. coli SBECO1); 2 in assay [4].

With K R R W V W W V W R L I [MBI 11F4CNR], the MIC in assay [7] (S. epidermidis SE010) was determined as 8 µg/mL.

As for W R I W K P K W R L P K W [MBI 11D18CN], the “Ciprofloxacin Comb. MIC” value in assay [1] (S. aureus SA10) stood at 32 µg/mL; in assay [1] (S. aureus SA14), 8 µg/mL; in assay [2] (P. aeruginosa PA24, MIC of Ciprofloxacin in combination with the peptide), 4 µg/mL. The “Peptide Comb MIC” value is 2 µg/mL in assay [1] (S. aureus SA10); 4 µg/mL in assay [1] (S. aureus SA14); 16 µg/mL in assay [2] (P. aeruginosa PA24, MIC of peptide in combination with Ciprofloxacin). Besides, the FIC in assay [1] (S. aureus SA10, peptide + Ciprofloxacin) was determined as 2.00; in assay [1] (S. aureus SA14, peptide + Ciprofloxacin), 1.00; in assay [1] (setting [9]) it was 0.13; in assay [5] (S. marcescens SBSM1) it was 0.28; in assay [2] (P. aeruginosa PA2, peptide + Mupirocin), 0.53; in assay [2] (P. aeruginosa PA24, peptide + Ciprofloxacin) it was 0.31. The FIC in assay [2] (P. aeruginosa PA24, peptide + Mupirocin) stood at 2; in assay [3], 1.13; in assay [6] (E. coli SBECO2) it was 0.07; in assay [4], 2. Further, the “Peptide MIC” value in assay [1] (S. aureus SA10) is 2 µg/mL; in assay [1] (S. aureus SA14) it was 8 µg/mL; in assay [1] (S. aureus SBSA4), 16 µg/mL; in assay [5] (S. marcescens SBSM1), above 128 µg/mL; in assay [2] (P. aeruginosa PA2, peptide alone), 128 µg/mL; in assay [2] (P. aeruginosa PA24, peptide alone (Ciprofloxacin table)) it was above 128 µg/mL. Also, the “Peptide MIC” value in assay [2] (P. aeruginosa PA24, peptide alone (Mupirocin table)) was above 128 µg/mL; in assay [3], 32 µg/mL; in assay [6] (E. coli SBECO2), 16 µg/mL; in assay [4], 16 µg/mL. For the same compound, the “Mupirocin Comb. MIC” value in assay [1] (S. aureus SBSA4) was 0.1 µg/mL; in assay [5] (S. marcescens SBSM1), 30 µg/mL; in assay [2] (P. aeruginosa PA2), 30 µg/mL; in assay [2] (P. aeruginosa PA24), above 100 µg/mL; in assay [3], 3 µg/mL; in assay [6] (E. coli SBECO2), 10 µg/mL. Further, the “Mupirocin Comb. MIC” value in assay [4] came out at 100 µg/mL. Besides, the “Peptide Comb. MIC” value in assay [1] (S. aureus SBSA4) was 2 µg/mL; in assay [5] (S. marcescens SBSM1), 64 µg/mL; in assay [2] (P. aeruginosa PA2) it was 64 µg/mL; in assay [2] (P. aeruginosa PA24) it was above 128 µg/mL; in assay [3], 4 µg/mL; in assay [6] (E. coli SBECO2), 1 µg/mL. Besides, the “Peptide Comb. MIC” value in assay [4] came out at 16 µg/mL.
